Literature values as cited in US7166295B1, “Methods of treatment and diagnostic visualization, particularly in cancer” (priority 1995, dated 2007).

Settings: incorporated in liposomes, injected intraperitoneally into mice; compared with injection of the respective free drug

Compound	concentration of drug in the plasma, spleen and lymphoid tissue relative to the free drug
CCCCCCCC/C=C\CCCCCCCC(=O)OCC(COP(=O)(O)OC[C@@H]1CCC(n2ccc(N)nc2=O)O1)OC(=O)CCCCCCC/C=C\CCCCCCCC (some centres unmarked) [DOP-ddc, Dioleoyl-phospathidyl-ddc]	increased concentration of drug in the plasma, spleen and lymphoid tissue
CCCCCCCCCCCCCCCC(=O)OCC(COP(=O)(O)OCC1OC(n2cc(C)c(=O)[nH]c2=O)CC1N=[N+]=[N-])OC(=O)CCCCCCCCCCCCCCC (centres unmarked) [DPP-AZT, Dipalmitoyl-phosphatidyl-3′-Azido-3′-deoxythymidine]	increased concentration of drug in the plasma, spleen and lymphoid tissue
